Data: article PMC1924862, “X-ray structures of Na-GST-1 and Na-GST-2 two glutathione s-transferase from the human hookworm Necator americanus” (BMC Structural Biology, 2007)
Read-outs that look alike come from different tables or passages of the source.

Legend:
Na-GST-2 = biological target: T1, Na-GST-2 (Necator americanus, UniProt D3U1A6); test: CDNB-glutathione conjugation, absorbance at […] nm; format: biochemical
T1 construct: homodimer; Nu class; glutathione carried over from fermentation
T1 sequence (D3U1A6 1-206): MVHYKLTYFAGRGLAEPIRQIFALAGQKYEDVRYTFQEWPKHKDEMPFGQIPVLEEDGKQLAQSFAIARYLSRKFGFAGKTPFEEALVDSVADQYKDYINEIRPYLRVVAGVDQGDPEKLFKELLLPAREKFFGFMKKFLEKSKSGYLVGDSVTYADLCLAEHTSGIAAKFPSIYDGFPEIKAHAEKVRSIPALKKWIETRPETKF

Na-GST-1 = biological target: T2, Na-GST-1 (Necator americanus, UniProt D3U1A5); test: CDNB-glutathione conjugation, absorbance at […] nm; format: biochemical
T2 construct: 206 residues ordered; homodimer; Nu class
T2 sequence (D3U1A5 1-206): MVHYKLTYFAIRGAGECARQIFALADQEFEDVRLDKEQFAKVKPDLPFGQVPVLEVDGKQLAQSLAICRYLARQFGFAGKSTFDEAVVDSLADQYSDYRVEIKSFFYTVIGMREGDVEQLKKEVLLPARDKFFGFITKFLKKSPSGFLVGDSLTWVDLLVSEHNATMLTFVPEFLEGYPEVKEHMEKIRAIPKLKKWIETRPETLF

Structure (SMILES) | IC50 (Na-GST-2) | IC50 (Na-GST-1; read-out: Na-GST-1) | IC50 (Na-GST-1)
CCCSc1ccc2nc(NC(=O)OC)[nH]c2c1 [albendazole] | 68 µM | 87 µM | 
[Cl][Sn]([c]1ccccc1)([c]1ccccc1)[c]1ccccc1 [chlorotriphenyltin] | 0.7 µM |  | 22 µM
O=C(C1CCCCC1)N1CC(=O)N2CCc3ccccc3C2C1 (stereo not drawn) [praziquantel] | 3300 µM | > 20000 µM | 
